In PubChem BioAssay AID179 (DTP/NCI, 2004):
The source made the active and inactive calls.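 The calls were made as follows: active = compounds giving half or more protection of infected cells from virus-caused growth loss, again on retest; inactive = the rest.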

Test system: CEM cells HIV-1 protection, formazan growth assay
Test: NCI AIDS Antiviral Assay
Conditions: for IC50: measured here: growth of uninfected CEM cells
How it was run: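 Human CEM cells, uninfected and HIV-1-infected, exposed to five drug concentrations; growth measured by soluble formazan assay and scored as percent protection from infection, with protecting compounds retested.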

SMILES	EC50	IC50	outcome
Nc1cc2cccc[n+]2c2cccc(Cl)c12	> 200 µM	4.47 µM	
CC(=O)OC1CN(OCC2OC(OC(C)=O)C(OC(C)=O)C(OC(C)=O)C2OC(C)=O)CC(OC(C)=O)C1OC(C)=O (stereo not drawn)	> 200 µM	> 200 µM	
CN1N(c2ccccc2)C(=O)C2=NC=C(C(=O)c3ccccc3)C(=N)C21C (stereo not drawn)	> 200 µM	> 200 µM	
C(=C\c1c2oc(-c3ccccc3)cc(-c3ccccc3)c-2c2ccccc12)/C=C1\c2ccccc2-c2c(-c3ccccc3)cc(-c3ccccc3)[o+]c21	> 6.76 µM	> 6.76 µM	
COc1cccc2c1[C@]1(O)C(O)CCCC21 (stereo partly drawn)	> 200 µM	> 200 µM	
CCOc1ccc2nc3cc(N=Nc4ccc5c(N)c6cc(OCC)ccc6nc5c4)ccc3c(N)c2c1	> 100 µM	20.4 µM	
CC(CCC(=O)O)(c1ccc(O)c(CN(c2ccccc2)c2ccccc2)c1)c1ccc(O)c(CN(c2ccccc2)c2ccccc2)c1			inactive
NC1=NS(=O)(=O)Nc2nn(-c3ccccc3)nc21	> 339 µM	> 339 µM	
COC(=O)C1C(C(=O)OC)C1(Br)CBr (stereo not drawn)	> 200 µM	5.89 µM	
CC[C@H]1C2OC(=O)[C@H](C)C2[C@@]2(O)C[C@@H]([C@@H]3C[C@H](C)C(=O)O3)N3CCCC[C@@]12C3=O (stereo partly drawn)	> 200 µM	> 200 µM	
O=C(Nc1ccccc1)c1c(O)[nH]c(=S)[nH]c1=O	11.2 µM	21.4 µM	
CN(C)CCC(=O)CCN(C)C	> 1020 µM	186 µM	
O=C(Nc1ccc(N=Nc2ccc(S(=O)(=O)O)cc2)cc1)c1ccc(N=Nc2ccc3c(S(=O)(=O)O)cccc3c2O)cc1	30.9 µM	195 µM	
NC(=S)N/C=C\c1nc2ccccc2[nH]c1=O	> 200 µM	> 200 µM	
O=C1N2Cc3c4ccc5c3CN3C(=O)N6Cc7c(ccc(c7CN1C6(c1ccccc1)C23c1ccccc1)OCCOCCNCCOCCO4)OCCOCCNCCOCCO5 (stereo not drawn)	> 6.03 µM	> 6.03 µM	
O=C(O)CN1C(=O)CSC1=S	> 1290 µM	794 µM	

SMILES	EC50	IC50	outcome
COc1ccc2c(C(=O)O)cc3cc(OC)c(OC)cc3c2c1			inactive
CN(C)C(=S)/N=C1\SC(=Nc2ccccc2)C(=Nc2ccccc2)N1c1ccc([N+](=O)[O-])cc1	> 200 µM	138 µM	
Nc1ccc(S(=O)(=O)O)cc1[N+](=O)[O-]	> 1150 µM	> 1150 µM	
NC(=O)SCC(=O)NNc1ccccc1	> 200 µM	4.47 µM	
CCOC(=O)C1(c2ccccc2)C(=O)Oc2ccccc21 (stereo not drawn)	13.2 µM	64.6 µM	
CC(C)OP(=O)(OC(C)C)/C(=N/N)NNc1ccc([N+](=O)[O-])cc1	> 138 µM	83.2 µM	
CC(c1ccccc1)N1CC(C)(c2ccccc2)N(O)C(c2ccccc2)C1C (stereo not drawn)	> 18.6 µM	> 18.6 µM	
CCCCCCCCCC(=O)OCC1OC(n2cc(F)c(=O)[nH]c2=O)C(N)C(OC(=O)CCCCCCCCC)C1O (stereo not drawn)	> 31.6 µM	> 31.6 µM	
O=c1ccn([C@@H]2C[C@H](CO)[C@H](O)C2)c(=O)[nH]1	> 1100 µM	> 1100 µM	
CCOC(=O)CC1=CSC2=NCCN12			inactive
O=C(Cc1ccccc1)NNc1nc(NNC(=O)c2ccncc2)nc(Nc2cccc(Cl)c2)n1	> 200 µM	> 200 µM	
COc1cc2c(c(OC)c1OC)C(=O)[C@@H](O)[C@H]2NC(=O)CCCCl	> 200 µM	> 200 µM	
COc1ccc2nc3ccccc3c(NCCC[N+](C)(C)[O-])c2c1[N+](=O)[O-]	> 200 µM	14.1 µM	
CN1C(=O)CCC2[C@@H]3CC=C4C[C@@H](O)CC[C@]4(C)C3CC[C@@]21C (stereo partly drawn)			inactive
CCOc1cc2c(=O)oc3c(OC)ccc4ccc(c1OC)c2c43			inactive
ClC[Si]12OCCN(CCO1)CCO2			inactive
